Where “and” joins values, the source holds several entries; their conditions need not be identical. Equal values may be shown once.
What was measured:
Type in all cases: physicochemical
[1] = Phase solubility in deionized water (HPLC); settings: for pH of mixture: aqueous solubility measurements, supplement; for pH at saturation solubility / solubility: deionized H2O, quadruplicates
Description: The pH‐solubility profile of cGMPSA salts and free acid was determined by phase solubility techniques.[18] Briefly, saturated mixtures of the compound were prepared by adding excess amount to 4 mL vials containing 2 mL deionized water, an acidic buffer (0.1 M HCl(aq), pH 1), or a basic buffer (0.1 M NaOH(aq), pH 13). They were allowed to equilibrate for 24 h using mild agitation before recording the pH. The clear solution was separated from the solids by filtration with a Cytiva Whatman™ Mini‐Uniprep™ polypropylene 0.45 μm filter device and diluted to an appropriate analytical concentration where needed. The sample was then analyzed by HPLC, and the solubility determined by integrating the area of the peak of interest against a standard curve. The solids were also analyzed by XRPD to record the crystal modification obtained.

[2] = Dynamic vapor sorption (DVS), water sorption as Δm; settings: for Water sorption Δm: 25 °C; for Observed Δm: DVS step compared to theoretical hydrate mass change; for Stable %RH range: RH range of the corresponding hydrate step on DVS; for change in mass (Δm): at 95 % relative humidity (maximum RH), stated in text; for Δm after desorption: equilibrated value after desorption cycles
Description: The samples were analyzed at 25 °C with a Surface Measurements Systems DVS Advantage. A sample was weighted into a weighing pan and its mass was monitored while it was exposed to different relative humidities (%RH=%P/P0). Before the analysis, the weighing pan was subject to an antistatic program.
The analysis program consisted of two cycles. In each cycle, the relative humidity was increased stepwise up to 95 % RH (starting from 0 % RH, 9 steps with 10 % and one step with 5 %) and then decreased stepwise to 0 % RH again. In both sorption/desorption cycles, at each step, the sample was kept at the set relative humidity until dm/dt <0.002 %, over 15 min.

[3] = Thermal analysis (DSC/TGA), decomposition; settings: for Onset of decomposition (DSC exotherm): DSC 25 to 300 °C, 10 °C/min
Description: Differential scanning calorimetry (DSC) analyses were carried out on a Mettler DSC822e, equipped with a Thermo Haake EK45/MT cooler. The samples were weighed into a 40 μL Al‐cup, which were then closed with a pierced lid. The sample was scanned from 25 to 300 °C, with a scan rate of 10 °C/min.
Thermogravimetric analysis (TGA) was performed on a Mettler TGA/SDTA 851e, equipped with a Haake C50P cooler. Alternatively, thermogravimetric and DSC analyses were carried out simultaneously in a Mettler Toledo TGA/DSC 3+. The samples were weighed into a 100 μL Al‐cup and this was flushed with dry nitrogen gas during the analysis. The sample was scanned from 25 to 300 °C, with a scan rate of 10 °C/min.

[4] = 0 % RH, after final desorption cycle 2 (D2)
[5] = 30 % RH, desorption cycle 2 (D2)
[6] = 60 % RH, desorption cycle 2 (D2)
[7] = 95 % RH, desorption cycle 2 (D2)
[8] = hydrate step stable over 40–70 % RH
[9] = hydrate step stable over 60–95 % RH

Row | SMILES | pH of mixture [1] | pH at saturation solubility [1] | solubility [1] | Water sorption Δm [2, 4] | Water sorption Δm [2, 5] | Water sorption Δm ([2]; 30 % RH, sorption cycle 1 (S1)) | Water sorption Δm [2, 6] | Water sorption Δm ([2]; 60 % RH, sorption cycle 1 (S1)) | Water sorption Δm [2, 7] | Water sorption Δm ([2]; 95 % RH, sorption cycle 1 (S1)) | change in mass (Δm) [2] | Onset of decomposition (DSC exotherm) [3] | also measured
1 | O=c1c2nc(Br)n([C@@H]3O[C@@H]4CO[P@@](O)(=S)O[C@H]4[C@H]3O)c2nc2[nH]c(-c3ccccc3)cn12.O=c1c2nc(Br)n([C@@H]3O[C@@H]4CO[P@@](O)(=S)O[C@H]4[C@H]3O)c2nc2[nH]c(-c3ccccc3)cn12.c1ccc(CNCCNCc2ccccc2)cc1 [cGMPSA‐BZ, N,N′-Dibenzylethylenediammonium RP-8-Bromo-β-phenyl-1,N2-ethenoguanosine-3′,5′-cyclicmonophosphorothioate (1:2)] | 6,81 | 6.8 (±0.1) | 0.01 (±0.01) mg/mL | −0.2% | 0.7% | 0.6% | 3.9% | 1.9% | 4.7% | 4.8% | 5% |  | Observed Δm [2, 8]: 1.3%; Observed Δm [2, 9]: 3.9%; Stable %RH range [2, 8]: 40–70 %RH; Stable %RH range [2, 9]: 60–95 %RH; change in mass (Δm) ([2]; listed as ‐BZ): about 5%
2 | O=c1c2nc(Br)n([C@@H]3O[C@@H]4CO[P@@](O)(=S)O[C@H]4[C@H]3O)c2nc2[nH]c(-c3ccccc3)cn12.c1ccc(CCNCc2ccccc2)cc1 [cGMPSA‐Bnet, N-(Phenylmethyl)benzeneethanammonium RP-8-Bromo-β-phenyl-1,N2-ethenoguanosine-3′,5′-cyclicmonophosphorothioate] | 7,17 | 7.2 (±0.04) | 0.05 (±0.03) mg/mL | 0.7% | 4.4% | 3.4% | 6.1% | 5.2% | 7.7% | 8.0% |  |  | 
3 | O=c1c2nc(Br)n([C@@H]3O[C@@H]4COP(=O)([S-])O[C@H]4[C@H]3O)c2nc2[nH]c(-c3ccccc3)cn12.O=c1c2nc(Br)n([C@@H]3O[C@@H]4COP(=O)([S-])O[C@H]4[C@H]3O)c2nc2[nH]c(-c3ccccc3)cn12.[Ca+2] (stereo partly shown) [cGMPSA‐Ca] | 6,88 | 6.9 (±0.5) | 0.28 (±0.2) mg/mL | 1.9% | 12.4% | 5.3% | 15.5% | 7.1% | 22.0% | 21.9% | 22% | 253.2 °C | Observed Δm [2]: 1.9%; Stable %RH range [2]: 0 %RH; enthalpy of decomposition ([3]; DSC): 162.3 J/g
4 | O=c1c2nc(Br)n([C@@H]3O[C@@H]4COP(=O)(S)O[C@H]4[C@H]3O)c2nc2[nH]c(-c3ccccc3)cn12 (stereo partly shown) [cGMPSA‐H] | 2,47 | 2.5 (±0.2) | 1.7 (±0.1) mg/mL | 0.3% | 5.7% | 5.3% | 6.7% | 6.2% | 9.3% | 9.1% |  | 163.6 °C and ~ 163 °C | 
5 | N.O=c1c2nc(Br)n([C@@H]3O[C@@H]4COP(=O)(S)O[C@H]4[C@H]3O)c2nc2[nH]c(-c3ccccc3)cn12 (stereo partly shown) [cGMPSA‐NH4] | 3,16 | 3.2 (±0.1) | 7.9 (±8.0) mg/mL |  |  |  |  |  |  |  |  |  | 
6 | O=c1c2nc(Br)n([C@@H]3O[C@@H]4COP(=O)([S-])O[C@H]4[C@H]3O)c2nc2[nH]c(-c3ccccc3)cn12.[Na+] (stereo partly shown) [cGMPSA‐Na] | 5,45 | 5.5 (±0.2) | 38.4 (±11.1) mg/mL | −0.3% | 6.3% | 2.2% | 12.5% | 8.1% | 15.1% | 15.1% |  | 212 °C | solubility ([1]; listed as sodium): 38 mg/mL; solubility ([1]; listed as ‐Na): approximately 40 mg/mL; Δm after desorption ([2]; 0 % RH): ~ 0
7 | NC(CO)(CO)CO.O=c1c2nc(Br)n([C@@H]3O[C@@H]4CO[P@@](O)(=S)O[C@H]4[C@H]3O)c2nc2[nH]c(-c3ccccc3)cn12 [cGMPSA‐Tris, Tris(hydroxymethyl)aminomethane RP-8-Bromo-β-phenyl-1,N2-ethenoguanosine-3′,5′-cyclicmonophosphorothiotic acid] | 8,45 | 8.5 (±0.1) | 13.5 (±3.5) mg/mL | 3.3% | 5.5% | 4.9% | 6.8% | 6.0% | 32.4% | 32.8% | 32% |  | solubility ([1]; listed as ‐Tris): ~15 mg/mL; Observed Δm [2]: 3.3%; Stable %RH range [2]: 0–70 %RH; initial early sorption Δm ([2]; consistent with 1 equivalent of H2O): ~3%; Δm after desorption ([2]; 0 % RH): 3.3
